Assay results reported in patent US6090834A, “Substituted oxazoles for the treatment of inflammation” (G.D. Searle & Co., priority 1998, dated 2000).

Tests used:
[1] = test system: carrageenan foot edema; experiment: Rat Carrageenan Foot Pad Edema Test; assay type: in vivo, Male Sprague-Dawley rats; details: oral, 3 h after carrageenan; for inhibition in vivo at 10 mg/kg: Rattus norvegicus, 10 mg/kg body weight, read-out: RAT PAW EDEMA % Inhibition @ 10 mg/kg body weight
Experimental: Rat Carrageenan Foot Pad Edema Test
Male Sprague-Dawley rats were selected in each group so that the average body weight was as close as possible. Rats were fasted with free access to water for over sixteen hours prior to the test. […] One hour later a subplantar injection of 0.1 mL of 1% solution of carrageenan/sterile 0.9% saline was administered and the volume of the injected foot was measured with a displacement plethysmometer connected to a pressure transducer with a digital indicator. Three hours after the injection of the carrageenan, the volume of the foot was again measured.

[2] = test system: COX-2; experiment: COX-2 activity in vitro (PGE2 formed, ELISA); assay type: biochemical, human or murine; details: recombinant enzyme, arachidonic acid 10 μM, pH 8.0; read-out: COX II ID50
Experimental: (§1) Evaluation of COX I and COX II activity in vitro
(§2) The COX-2 inhibition activity of the compounds of this invention illustrated in the Examples was determined by the following methods. a. Preparation of recombinant COX baculoviruses
(§3) Recombinant COX-1 and COX-2 were prepared as described by Gierse et al, [J. Biochem., 305, 479-84 (1995)]. A 2.0 kb fragment containing the coding region of either human or murine COX-1 or human or murine COX-2 was cloned into a BamH1 site of the baculovirus transfer vector pVL1393 (Invitrogen) to generate the baculovirus transfer vectors for COX-1 and COX-2 in a manner similar to the method of D. R. O'Reilly et al (Baculovirus Expression Vectors: A Laboratory Manual (1992)). Recombinant baculoviruses were isolated by transfecting 4 μg of baculovirus transfer vector DNA into SF9 insect cells (2×10^8) along with 200 ng of linearized baculovirus plasmid DNA by the calcium phosphate method. See M. D. Summers and G. E. Smith, A Manual of Methods for Baculovirus vectors and Insect Cell Culture Procedures, Texas Agric. Exp. Station Bull. 1555 (1987). Recombinant viruses were purified by three rounds of plaque purification and high titer (10^7 -10^8 pfu/ml) stocks of virus were prepared. For large scale production, SF9 insect cells were infected in 10 liter fermentors (0.5×10^6 /ml) with the recombinant baculovirus stock such that the multiplicity of infection was 0.1. After 72 hours the cells were centrifuged and the cell pellet homogenized in Tris/Sucrose (50 mM: 25%, pH 8.0) containing 1% 3-[(3-cholamidopropyl)dimethylammonio]-1-propanesulfonate (CHAPS). The homogenate was centrifuged at 10,000×G for 30 minutes, and the resultant supernatant was stored at -80° C. before being assayed for COX activity. […]
(§4) b. Assay for COX-1 and COX-2 activity
(§5) COX activity was assayed as PGE2 formed/μg protein/time using an ELISA to detect the prostaglandin released. CHAPS-solubilized insect cell membranes containing the appropriate COX enzyme were incubated in a potassium phosphate buffer (50 mM, pH 8.0) containing epinephrine, phenol, and heme with the addition of arachidonic acid (10 μM). Compounds were pre-incubated with the enzyme for 10-20 minutes prior to the addition of arachidonic acid. Any reaction between the arachidonic acid and the enzyme was stopped after ten minutes at 37° C./room temperature by transferring 40 μl of reaction mix into 160 μl ELISA buffer and 25 μM indomethacin. The PGE2 formed was measured by standard ELISA technology (Cayman Chemical).

[3] = test system: COX-1; experiment: COX-1 activity in vitro (PGE2 formed, ELISA); assay type: biochemical, human or murine; details: recombinant enzyme, arachidonic acid 10 μM, pH 8.0; read-out: COX-1 ID50
Experimental: as §1, §2, §3, §4, §5

[4] = test system: hyperalgesic foot withdrawal; experiment: Rat Carrageenan-induced Analgesia Test; assay type: in vivo, Male Sprague-Dawley rats; details: oral, hyperalgesic foot withdrawal 3 h after carrageenan
Experimental: Rat Carrageenan-induced Analgesia Test
The analgesia test using rat carrageenan was performed with materials, reagents and procedures essentially as described by Hargreaves, et al., (Pain, 32, 77 (1988)). Male Sprague-Dawley rats were treated as previously described for the Carrageenan Foot Pad Edema test. Three hours after the injection of the carrageenan, the rats were placed in a special plexiglass container with a transparent floor having a high intensity lamp as a radiant heat source, positionable under the floor. After an initial twenty minute period, thermal stimulation was begun on either the injected foot or on the contralateral uninjected foot. A photoelectric cell turned off the lamp and timer when light was interrupted by paw withdrawal. The time until the rat withdraws its foot was then measured. The withdrawal latency in seconds was determined for the control and drug-treated groups, and percent inhibition of the hyperalgesic foot withdrawal determined.

| SMILES | IC50 [2] | IC50 [3] | inhibition in vivo at 10 mg/kg [1] | further results |
| --- | --- | --- | --- | --- |
| CC(C)(C)c1nc(-c2ccc(F)cc2)c(-c2ccc(S(C)(=O)=O)cc2)o1 [Example 7, 2-(Tert-butyl)-4-(4-fluorophenyl)-5-[4-(methylsulfonyl)phenyl]oxazole] |  |  | 24% |  |
| CS(=O)(=O)c1ccc(-c2oc(CCc3ccccc3)nc2-c2ccc(F)cc2)cc1 [Example 1, 4-(4-fluorophenyl)-2-(2-phenylethyl)-5-(4-(methylsulfonyl)phenyl)oxazole] | < 100 nM | 6900 nM |  | RAT PAW EDEMA % Inhibition (* @ 20 mg/kg body weight) ([1]; 20 mg/kg body weight): 41%; ANALGESIA % Inhibition @ 20 mg/kg body weight [4]: 44% |
| CCOC(=O)Cc1nc(-c2ccc(F)cc2)c(-c2ccc(S(C)(=O)=O)cc2)o1 [Example 11] |  |  | 42% |  |
| CS(=O)(=O)c1ccc(-c2oc(C(c3ccccc3)c3ccccc3)nc2-c2ccc(F)cc2)cc1 [Example 10, 2-Diphenylmethyl-4-(4-fluorophenyl)-5-[4-methylsulfonylphenyloxazole]] |  |  | 18% |  |
| COc1ccc(Cc2nc(-c3ccc(F)cc3)c(-c3ccc(S(C)(=O)=O)cc3)o2)cc1 [Example 8, 4-(4-Fluorophenyl)-2-(4-methoxyphenyl)methyl-5-[4-methylsulfonylphenyl]oxazole] |  |  | 12% |  |
| COc1ccc(-c2oc(C(F)(F)F)nc2-c2ccc(S(C)(=O)=O)cc2)cc1F [Example 70, 5-(3-fluoro-4-methoxyphenyl)-4-(4-methylsulfonylphenyl)-2-trifluoromethyloxazole] | < 100 nM | > 100000 nM |  | RAT PAW EDEMA % Inhibition (1 @ 30 mg/kg body weight) [1]: 46% |
| CS(=O)(=O)c1ccc(-c2oc(COc3ccccc3)nc2-c2ccc(F)cc2)cc1 [Example 28, 4-(4-fluorophenyl)-5-[4-(methylsulfonyl)-phenyl]-2-phenoxymethyloxazole] |  |  | 2% |  |
| CS(=O)(=O)c1ccc(-c2oc(CC(=O)O)nc2-c2ccc(F)cc2)cc1 [Example 16, 2-[4-(4-Fluorophenyl)-5-[4-(methylsulfonyl)phenyl]oxazol-2-yl]acetic acid] |  |  | 26% |  |
| CS(=O)(=O)c1ccc(-c2oc(COc3ccc(F)cc3)nc2-c2ccc(F)cc2)cc1 [Example 31, 4-(4-fluorophenyl)-5-[4-(methylsulfonyl)-phenyl]-2-[(4-fluorophenoxy)methyl]oxazole] | < 100 nM | > 100000 nM | 5% |  |

The next lines start with results.

| IC50 [2] | IC50 [3] | SMILES | inhibition in vivo at 10 mg/kg [1] | further results |
| --- | --- | --- | --- | --- |
| < 100 nM | > 10000 nM | CS(=O)(=O)c1ccc(-c2oc(-c3ccccc3)nc2-c2ccc(F)cc2)cc1 [Example 3, 4-(4-Fluorophenyl)-5-[4-(methylsulfonyl)phenyl]-2-phenyloxazole] | 30% |  |
| 500 nM | 1700 nM | NS(=O)(=O)c1ccc(-c2oc(S)nc2-c2ccccc2)cc1 [Example 46, 4-[2-mercapto-4-phenyl-5-oxazolyl]benzenesulfonamide] |  |  |
| < 100 nM | 9700 nM | COc1nc(-c2ccccc2)c(-c2ccc(S(N)(=O)=O)cc2)o1 [Example 55, 4-[2-methoxy-4-phenyl-5-oxazolyl]benzenesulfonamide] |  | RAT PAW EDEMA % Inhibition (1 @ 30 mg/kg body weight) [1]: 37% |
| < 100 nM | > 100000 nM | CS(=O)(=O)c1ccc(-c2oc(COc3cccc(Cl)c3)nc2-c2ccc(F)cc2)cc1 [Example 30, 4-(4-fluorophenyl)-5-[4-(methylsulfonyl)phenyl]-2-(3-chlorophenoxy)methyloxazole] | 4% |  |
| 2200 nM | > 100000 nM | NC(=O)c1nc(-c2ccccc2)c(-c2ccc(S(N)(=O)=O)cc2)o1 [Example 72, 5-(4-aminosulfonylphenyl)-4-phenyl-oxazole-2-carboxamide] |  |  |
| 1400 nM | 24700 nM | NS(=O)(=O)c1ccc(-c2oc(CC(=O)O)nc2-c2ccc(Cl)cc2)cc1 [Example 36, [5-(4-aminosulfonylphenyl)-4-(4-chlorophenyl)]-2-oxazoleacetic acid] |  |  |
| < 100 nM | 47500 nM | COCc1nc(-c2ccccc2)c(-c2ccc(S(N)(=O)=O)cc2)o1 [Example 73, 4-[2-methoxymethyl-4-phenyl-oxazolyl]benzenesulfonamide] |  |  |
| 3100 nM | 2300 nM | NS(=O)(=O)c1ccc(-c2oc(CCC(=O)O)nc2-c2ccccc2)cc1 [Example 43, [5-(4-aminosulfonylphenyl)-4-phenyl]-2-oxazolepropionic acid] |  |  |
| < 100 nM | 14000 nM | Cc1nc(-c2ccccc2)c(-c2ccc(S(N)(=O)=O)cc2)o1 [Example 51, 4-[2-methyl-4-phenyl-5-oxazolyl]benzenesulfonamide] |  |  |
